According to patent publication US6440989B2, “Phenyl-substituted tricyclic inhibitors of farnesyl-protein transferase” (Schering Corporation, priority 1997, dated 2002):

Molecular target: T1, partially purified rat brain farnesyl protein transferase (FPT) (Rattus norvegicus, UniProt Q02293+Q04631)
T1 construct: partially purified rat brain farnesyl protein transferase (FPT); from tissue; host or cells: rat brain
Assay: In vitro enzyme assay: inhibition of Ras-CVLS farnesylation by farnesyl protein transferase
Assay type: biochemical
Protocol: 1. In vitro enzyme assays: FPT IC50 (inhibition of farnesyl protein transferase, in vitro enzyme assay) are determined by the methods disclosed in WO/10515 or WO 95110516.

Row | IC50 [nM] | Compound
1 | 3.2 | COc1cc(C)cc2c1C(C1CCN(C(=O)Cc3cc[n+]([O-])cc3)CC1)c1ncc(Br)cc1CC2 (racemic) [Example 3, (+,−)-4-(3-Bromo-10-methoxy-8-methyl-6,11-dihydro-5H-benzo[5,6]cyclohepta[1,2-b]pyridin-11-yl)-1-(4-pyridinylacetyl)piperidine N1-oxide]
2 | 140 | COc1cc(C)cc2c1C(C1CCN(C(=O)Cc3cc[n+]([O-])cc3)CC1)c1ncccc1CC2 (racemic) [Example 4, (+,−)-4-(6,11-dihydro-10-methoxy-8-methyl-5H-benzo[5,6]cyclohepta[1,2-b]pyridin-11-yl)-1-(4-pyridinylacetyl)piperidine N-1 oxide]
3 | 120 | Cc1cc(O)c2c(c1)CCc1cc(Br)cnc1C2C1CCN(C(=O)Cc2cc[n+]([O-])cc2)CC1 (racemic) [Example 9, (+,−)-4-(3-Bromo-10-hydroxy-8-methyl-5,6-dihydro-11H-benzo[5,6]cyclohepta[1,2-b]pyridin-11-yl)-1-(4-pyridinylacetyl)piperidine N1-oxide]
4 | 16 | COc1cc(C)cc2c1C(N1CCN(C(=O)Cc3cc[n+]([O-])cc3)CC1)c1ncc(Br)cc1CC2 (racemic) [Example 10, (+,−)-1-(3-Bromo-10-methoxy-8-methyl-6,11-dihydro-5H-benzo[5,6]cyclohepta[1,2-b]pyridin-1 1-yl)-4-(4-pyridinylacetyl)piperazine N4-oxide]
5 | 110 | Cc1cccc2c1CCc1cc(Br)cnc1C2N1CCN(C(=O)Cc2cc[n+]([O-])cc2)CC1 (racemic) [Example 14, (+,−)-1-(3-Bromo-7-methyl-6,11-dihydro-5H-benzo[5,6]cyclohepta[1,2-b]pyridin-11-yl)-4-(4-pyridinylacetyl)piperazine N4-oxide]
6 | 130 | Cc1ccc(C)c2c1CCc1cc(Br)cnc1C2N1CCN(C(=O)Cc2cc[n+]([O-])cc2)CC1 (racemic) [Example 15, (+,−)-1-(3-Bromo-7,10-dimethyl-6,11-dihydro-5H-benzo[5,6]cyclohepta[1,2-b]pyridin-11-yl)-4-(4-pyridinylacetyl)piperazine N4-oxide]
7 | 64 | Cc1ccc2c(c1)CCc1cc(Br)cnc1C2N1CCN(C(=O)Cc2cc[n+]([O-])cc2)CC1 (racemic) [Example 16, (+,−)-1-(3-Bromo-8-methyl-6,11-dihydro-5H-benzo[5,6]cyclohepta[1,2-b]pyridin-11-yl)-4-(4-pyridinylacetyl)piperazine N4-oxide]
8 | 290 | COc1ccc2c(c1)CCc1cc(Br)cnc1C2N1CCN(C(=O)Cc2cc[n+]([O-])cc2)CC1 (racemic) [Example 17, (+,−)-1-(3-Bromo-6,11-dihydro-8-methoxy-5H-benzo[5,6]cyclohepta[1 ,2-b]pyridin-11-yl)-4-(4-pyridinylacetyl)piperazine N4-oxide]
9 | 43 | Cc1cc(C)c2c(c1)CCc1cc(Br)cnc1C2N1CCN(C(=O)Cc2cc[n+]([O-])cc2)CC1 (racemic) [Example 18, (+,−)-1-(3-Bromo-6,11-dihydro-8,10-dimethyl-5H-benzo[5,6]cyclohepta[1,2-b]pyridin-11-yl)-4-(4-pyridinylacetyl)piperazine N4-oxide]
10 | 4.8 | Cc1cc(Br)c2c(c1)CCc1cc(Br)cnc1C2N1CCN(C(=O)Cc2cc[n+]([O-])cc2)CC1 (racemic) [Example 21]
11 | 9.9 | Cc1cc(Br)cc2c1C(N1CCN(C(=O)Cc3cc[n+]([O-])cc3)CC1)c1ncc(Br)cc1CC2 (racemic) [Example 22, (+,−)-1-(3,8-Dibromo-6,11-dihydro-10-methyl-5H-benzo[5,6]cyclohepta[1,2-b]pyridin-11-yl)-4-(4-pyridinylacetyl)piperazine N4-oxide]
12 | > 200 | COc1cc(C)cc2c1C(C1CCN(C(=O)Cc3cc[n+]([O-])cc3)CC1)c1ncc(C(C)(C)O)cc1CC2 (racemic) [Example 23, (+,−)-4-[6,11-dihydro-3-(1-hydroxy-1-methylethyl)-10-methoxy-8-methyl-5H-benzo[5,6]cyclohepta[1,2-b]pyridin-11-yl]-1-(4-pyridinylacetyl)piperidine N1-oxide]
13 | 58 | COc1cc(C)c2c(c1)CCc1cc(Br)cnc1C2N1CCN(C(=O)Cc2cc[n+]([O-])cc2)CC1 (racemic) [Example 26, (+,−)-1-(3-Bromo-8-methoxy-10-methyl-6,11-dihydro-5H-benzo[5,6]cyclohepta[1 ,2-b]pyridin-11-yl)-4-(4-pyridinylacetyl)piperzazine N4-oxide]
14 | > 200 | COc1cc(C)cc2c1C(C1CCN(C(=O)Cc3cc[n+]([O-])cc3)CC1)c1ncc(C3CC3)cc1CC2 (racemic) [Example 32]
15 | > 180 | COc1cc(C)cc2c1C(N1CCN(C(=O)Cc3cc[n+]([O-])cc3)CC1)c1ncc(Br)cc1CC2 (single isomer, unassigned; (+)) [Example 20, (+)-1-(3-Bromo-10-methoxy-8-methyl-6,11-dihydro-5H-benzo[5,6]cyclohepta[1,2-b]pyridin-11-yl)-4-(4-pyridinylacetyl)piperazine N4-oxide, (+) enantiomer]
16 | 3.6 | COc1cc(C)cc2c1C(C1CCN(C(=O)Cc3cc[n+]([O-])cc3)CC1)c1ncc(Br)cc1CC2 (single isomer, unassigned; (+)) [Example 24, (+)-4-(3-Bromo-10-methoxy-8-methyl-6,11-dihydro-5H-benzo[5,6]cyclohepta[1,2-b]pyridin-11-yl)-4-(4-pyridinylacetyl)piperidine N1-oxide, (+) enantiomer]
17 | 1.2 | Cc1cc(Br)c2c(c1)CCc1cc(Br)cnc1C2C1CCN(C(=O)Cc2cc[n+]([O-])cc2)CC1 (single isomer, unassigned; (+)) [Example 33, (+) 4-(3-Bromo-6,11-dihydro-10-bromo-8-methyl-5H-benzo[5,6]cyclohepta[1,2-b]pyridin-11-yl)-1-(4-pyridinylacetyl)piperidine N1 -Oxide]
18 | 10.8 | Cc1cc(Br)c2c(c1)CCc1cc(Br)cnc1C2(O)C1CCN(C(=O)Cc2cc[n+]([O-])cc2)CC1 (single isomer, unassigned; (+)) [Example 35, (+) 4-(3-Bromo-6,11-dihydro-11-hydroxy-10-bromo-8-methyl-5H-benzo[5,6]cyclohepta[1,2-b]pyridin-11-yl)-1-(4-pyridinylacetyl)piperidine N1-Oxide]
19 | 4.2 | COc1cc(C)cc2c1C(N1CCN(C(=O)Cc3cc[n+]([O-])cc3)CC1)c1ncc(Br)cc1CC2 (single isomer, unassigned; (-)) [Example 19, (−)-1-(3-Bromo-10-methoxy-8-methyl-6,11-dihydro-5H-benzo[5,6]cyclohepta[1,2-b]pyridin-11-yl)-4-(4-pyridinylacetyl)piperazine N4-oxide, (−) enantiomer]
20 | 220 | COc1cc(C)cc2c1C(C1CCN(C(=O)Cc3cc[n+]([O-])cc3)CC1)c1ncc(Br)cc1CC2 (single isomer, unassigned; (-)) [Example 25, (−)-4-(3-Bromo-10-methoxy-8-methyl-6,11-dihydro-5H-benzo[5,6]cyclohepta[1,2-b]pyridin-11-yl)-4-(4-pyridinylacetyl)piperidine N1-oxide, (−) enantiomer]
